The values that follow come from patent publication US8263555B2 (Alcon Research, Ltd., priority 2007, dated 2012).

One assay relates to h-CM cells. The assay is described as follows: Production and release of endogenous prostaglandins from h-CM cells. The note with it: BK 1 μM, relative to baseline and to fluprostenol. In kind it is cell-based, human. On the procedure: A functional assay to discover BK agonists may involve the measurement of prostaglandin E2 (PGE2) production (Wiernas et al. Brit. J. Pharmacol. 123: 1127-1137, 1998), for instance, in cells isolated from human or animal ocular or non-ocular tissues, or cells expressing recombinant (preferably human) BK receptors. Cells expressing BK receptors are seeded in 48-wells culture plates and allowed to reach confluence. After this time the cells are rinsed twice with 0.5 mL of phosphate buffered saline and incubated with the test agent made up in 0.5 mL Dulbeco's modified Eagle's medium (DMEM)/F-12 for 1 h at 37° C. […]
After this incubation, all tubes are placed in an ice-bath and 1 ml cold precipitating reagent supplied in the kit is added to the tubes, the content mixed and incubated for 25 min at 4° C. […] The supernatants of all tubes are decanted as specified in the kit instructions and the RIA samples analyzed on a gamma-counter. The levels of PGE2 generated by the test agent are then quantified in comparison with the PGE2-standard curve. Dose-response data for the test agent are constructed and the potency and intrinsic activity determined as described above for other assays. […]

For assay [1], the target named is T1, B2-receptors in h-NPE cells (Homo sapiens, UniProt P30411).
T1 construct: we discovered and pharmacologically characterized B2-receptor proteins in h-TM, h-CM and h-NPE cells; endogenous in cells; host or cells: immortalized human non-pigmented ciliary epithelial (h-NPE) cells
T1 sequence (P30411 1-391): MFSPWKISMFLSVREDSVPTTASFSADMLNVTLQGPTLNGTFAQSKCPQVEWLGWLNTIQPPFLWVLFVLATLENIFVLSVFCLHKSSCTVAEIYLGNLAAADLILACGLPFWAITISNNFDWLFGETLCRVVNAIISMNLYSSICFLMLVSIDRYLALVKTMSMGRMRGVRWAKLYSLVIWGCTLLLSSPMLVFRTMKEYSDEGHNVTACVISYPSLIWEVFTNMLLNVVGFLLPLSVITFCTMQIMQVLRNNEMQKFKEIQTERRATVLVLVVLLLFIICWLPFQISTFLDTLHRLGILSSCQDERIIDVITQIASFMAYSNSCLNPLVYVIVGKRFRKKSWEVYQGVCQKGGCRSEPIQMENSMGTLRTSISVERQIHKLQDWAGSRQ
The assay is described as follows: BK- and BK-related peptide-induced [Ca^2+]i mobilization in h-NPE cells (agonist potency). In kind it is cell-based. The following applies: BK = 100%, read-out: Intrinsic Activity (Emax, % max relative to BK).

A further assay deals with rabbit IOP. The assay is described as follows: Acute IOP response in rabbit eyes, intravitreal administration. In kind it is in vivo. The note with it: 50 μg, relative to vehicle alone. On the procedure: IOP is determined with an applanation pneumatonometer after light corneal anesthesia with 0.1% proparacaine. After baseline IOP measurements are taken, one eye of each of 7-10 (or both eyes of 5) rabbits per compound dose is topically dosed with compound. Either the contralateral eye is dosed with vehicle or a separate group of rabbits is used for vehicle control. Subsequent IOP measurements are taken at 0.5, 1, 2, 3, and 4 hours. In cases where the compound has poor ocular bioavailability, the compound may need to be administered intracamerally or intravitreally in order to observe the IOP-lowering efficacy.
Conversely, non-peptidic BK antagonists dosed topical ocularly in the ocular hypertensive monkey eyes were ineffective at modulating IOP (see below Example 4).

The test system of assay [2] is Conscious Ocular Hypertensive Cynomolgus Monkey Eyes. The assay is described as follows: IOP response in conscious ocular hypertensive cynomolgus monkey eyes. The format is in vivo. The note with it: for % Change in IOP (mmHg): topical ocular 300 μg, mean ± SEM. As for the experimental part:
Intraocular pressure (IOP) is determined with an Alcon Pneumatonometer (Alcon Laboratories, Inc., Fort Worth, Tex.) after light corneal anesthesia with 0.1% proparacaine. Right eyes are hypertensive as a result of laser trabeculoplasty. After a baseline IOP measurement, test compound is instilled in the right eyes only of 8-10 cynomolgus monkeys. Vehicle is instilled in the right eyes of 5-6 additional animals. […] IOP measurements are also taken on left eyes (normotensive and untreated) at each of these time points. The percent change in IOP from baseline is determined for each animal for every IOP measurement (Sharif et al. J. Ocular Pharmacol. Ther. 17: 305-317, 2001; May et al., J Pharmacol Exp Ther. 306: 301-309, 2003; Sharif et al. Invest. Opthalmol. Vis. Res. 47: 4001-4010, 2006). Group mean and standard error of the mean (SEM) are calculated for each time point. […] In cases where the compound of invention has poor ocular bioavailability, the compound may need to be administered intracamerally or intravitreally in order to observe the IOP-lowering efficacy.

Assay [3] has as its target T2, BK B2-Receptor in h-CM cells (Homo sapiens, UniProt P30411).
T2 construct: we discovered and pharmacologically characterized B2-receptor proteins in h-TM, h-CM and h-NPE cells; endogenous in cells; host or cells: primary human ciliary muscle (h-CM) cells
T2 sequence (P30411 1-391): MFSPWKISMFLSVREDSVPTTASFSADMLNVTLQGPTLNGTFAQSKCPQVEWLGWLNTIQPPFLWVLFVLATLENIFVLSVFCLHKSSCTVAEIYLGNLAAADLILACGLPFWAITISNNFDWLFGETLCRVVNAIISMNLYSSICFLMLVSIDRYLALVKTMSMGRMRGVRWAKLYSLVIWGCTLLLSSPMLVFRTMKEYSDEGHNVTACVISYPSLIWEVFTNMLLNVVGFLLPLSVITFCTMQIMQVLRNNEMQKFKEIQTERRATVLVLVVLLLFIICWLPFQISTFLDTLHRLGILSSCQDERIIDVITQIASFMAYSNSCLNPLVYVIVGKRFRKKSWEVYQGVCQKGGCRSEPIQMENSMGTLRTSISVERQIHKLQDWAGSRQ
The assay is described as follows: Antagonism of BK-induced [Ca^2+]i mobilization in h-CM cells. The format is cell-based. The following applies: read-out: Antagonist Potency (Ki; nM) vs BK (10 nM) in [Ca^2+]i Mobilization Assay, mean ± SEM or individual experiments. On the procedure:
(§1) Opthalmol. Vis. Res. 47: 4001-4019, 2006; Sharif et al., J. Ocular Pharmacol. Ther. 22: 291-309, 2006).
(§2) On the day of the experiment, one vial of FLIPR Calcium Assay Kit dye is re-suspended in 50 mL of a FLIPR buffer consisting of Hank's Balanced Salt Solution (HBSS), 20 mM HEPES, and 2.5 mM probenecid, pH 7.4. Cells are loaded with the calcium-sensitive dye by addition of an equal volume (50 μL) to each well of the 96-well plate and incubated with dye for 1 h at 23° C. After this time, the test compound plate and cell plate are placed in the FLIPR instrument. At the beginning of an experimental run, a signal test is performed to check the basal fluorescence signal from the dye-loaded cells and the uniformity of the signal across the plate. The basal fluorescence is adjusted between 8000-12000 counts by modifying the exposure time, the camera F-stop, or the laser power. Instrument settings for a typical assay are the following: laser power 0.3-0.6 W, camera F-stop F/2, and exposure time 0.4 sec.
(§3) Fluorescence data are collected in real-time at 1.0 sec intervals for the first 60 secs and at 6.0 sec intervals for an additional 120 secs. […] The data are then analyzed using an automated, iterative, sigmoidal curve-fitting computer program to obtain the potency and intrinsic activities of the test agents as previously described (Sharif et al. J. Pharmacol. Exp. Ther. 286: 1094-1102, 1998; Sharif et al. Invest. Opthalmol. Vis. Sci. 39:2562-2571, 1998; Kelly et al. J. Pharmacol. Exp. Ther. 304: 238-245, 2003). The sources of materials and reagents for such assays can be found in the references cited above.

Assay [4] addresses T3, BK B2-Receptor in h-NPE cells (Homo sapiens, UniProt P30411).
T3 construct: we discovered and pharmacologically characterized B2-receptor proteins in h-TM, h-CM and h-NPE cells; endogenous in cells; host or cells: immortalized human non-pigmented ciliary epithelial (h-NPE) cells
T3 sequence (P30411 1-391): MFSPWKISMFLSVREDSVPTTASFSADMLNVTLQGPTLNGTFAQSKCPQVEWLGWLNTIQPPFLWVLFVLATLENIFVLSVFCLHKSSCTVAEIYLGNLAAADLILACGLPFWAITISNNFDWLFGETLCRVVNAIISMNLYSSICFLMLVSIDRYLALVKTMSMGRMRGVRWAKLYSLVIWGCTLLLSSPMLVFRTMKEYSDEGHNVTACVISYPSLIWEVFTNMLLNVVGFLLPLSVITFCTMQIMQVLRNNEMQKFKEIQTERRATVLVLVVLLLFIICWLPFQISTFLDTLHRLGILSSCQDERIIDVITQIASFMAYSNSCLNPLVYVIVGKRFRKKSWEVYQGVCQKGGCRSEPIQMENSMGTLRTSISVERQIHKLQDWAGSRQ
The assay is described as follows: Antagonism of BK-induced [Ca^2+]i mobilization in immortalized h-NPE cells. The format is cell-based. The note with it: read-out: Antagonist Potency (Ki; nM) vs BK (10 nM) in [Ca^2+]i Mobilization Assay, mean ± SEM or individual experiments. As for the experimental part:
as §1, §2, §3

For assay [5], the target named is T4, BK B2-Receptor in h-TM cells (Homo sapiens, UniProt P30411).
T4 construct: we discovered and pharmacologically characterized B2-receptor proteins in h-TM, h-CM and h-NPE cells; endogenous in cells; host or cells: primary human trabecular meshwork (h-TM) cells
T4 sequence (P30411 1-391): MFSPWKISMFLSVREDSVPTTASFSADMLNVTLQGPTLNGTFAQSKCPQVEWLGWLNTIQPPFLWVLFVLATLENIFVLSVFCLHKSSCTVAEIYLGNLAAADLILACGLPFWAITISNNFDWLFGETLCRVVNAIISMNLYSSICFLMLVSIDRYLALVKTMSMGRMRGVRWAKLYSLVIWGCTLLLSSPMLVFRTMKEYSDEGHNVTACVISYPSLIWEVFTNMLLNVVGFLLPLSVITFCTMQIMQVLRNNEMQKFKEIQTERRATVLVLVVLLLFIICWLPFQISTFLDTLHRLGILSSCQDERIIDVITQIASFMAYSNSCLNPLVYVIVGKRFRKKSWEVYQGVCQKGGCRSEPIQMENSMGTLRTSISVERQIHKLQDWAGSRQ
The assay is described as follows: Antagonism of BK-induced [Ca^2+]i mobilization in h-TM cells. In kind it is cell-based. The note with it: read-out: Antagonist Potency (Ki; nM) vs BK (10 nM) in [Ca^2+]i Mobilization Assay, mean ± SEM or individual experiments. On the procedure:
as §1
as §2, with “Instrument settings for a typical assay are the following: laser power 0.3-0.6 W, camera F-stop F/2, and exposure time 0.4 sec.” left out
Fluorescence data are collected in real-time at 1.0 sec intervals for the first 60 secs and at 6.0 sec intervals for an additional 120 secs. […] The data are then analyzed using an automated, iterative, sigmoidal curve-fitting computer program to obtain the potency and intrinsic activities of the test agents as previously described (Sharif et al. J. Pharmacol. Exp. Ther. 286: 1094-1102, 1998; Sharif et al. Invest. Opthalmol. Vis. Sci. 39:2562-2571, 1998; Kelly et al. J. Pharmacol. Exp. Ther. 304: 238-245, 2003). […]

Several values for one entry are separate records, joined by “and”; a condition that tells them apart may be missing. Identical values can stand only once.

The term Emax denotes the maximal effect, on the per cent scale that the assay sets. Usually Ki stands for the equilibrium dissociation constant of an inhibitor or competing ligand from its target.

As to `O=C(O)CCC/C=C\C[C@@H]1[C@@H](/C=C/[C@@H](O)COc2cccc(C(F)(F)F)c2)[C@H](O)C[C@@H]1O` (racemic) [fluprostenol], the production of prostaglandins entry with h-CM cells is “stimulation of production and release of endogenous prostaglandins”.
In the case of `N=C(N)NCCC[C@H](N)C(=O)N1CCC[C@H]1C(=O)N1CCC[C@H]1C(=O)NCC(=O)N[C@@H](Cc1ccccc1)C(=O)N[C@@H](CO)C(=O)N1CCC[C@H]1C(=O)N[C@@H](Cc1ccccc1)C(=O)O` [Des-Arg^9-BK], the maximal response (Emax) in assay [1] lay in the range of 70 to 77%. Also, the “effect on rabbit IOP” value with rabbit IOP is on record as “not”.
Regarding `CNC(=O)c1ccc(/C=C/C(=O)NCC(=O)N(C)c2ccc(Cl)c(COc3cccc4ccc(C)nc34)c2Cl)cc1` [FR-165649], the “% Change in IOP (mmHg)” value in assay [2] (Dose 1/1 hr post-dose) is 1.0 ± 3.1%; in assay [2] (Dose 1/3 hr post-dose), 0.7 ± 3.5%; in assay [2] (Dose 1/6 hr post-dose) it was −6.2 ± 4.7%; in assay [2] (Dose 1/24 hr post-dose) it was −4.0 ± 3.2%. Moreover, in assay [2] (topically administered 300 μg, conscious cynomolgus monkeys), the “modulation of IOP (in words)” value is given as “failed to modulate IOP”. For the same molecule, the Ki in assay [3] is 11 nM and 4 nM; in assay [4], 393 nM and 337 nM.
As to `Cc1nc2c(OCc3c(Cl)ccc(N(C)C(=O)CNC(=O)/C=C/c4ccc(C(=O)N(C)C)cc4)c3Cl)cccn2c1Br` [FR-167344], the inhibition constant Ki is 69 nM and 19 nM in assay [5]; 13 nM and 4 nM in assay [3]; 393 nM and 223 nM in assay [4].
